Consider 16 molecules from US4463014A, “Cyclopropane carboxylates” (Uclaf; Roussel, priority 1981, dated 1984).

SMILES strings stand for the structures.

Holding throughout (format): in vivo
Experiment [1] concerns larvae of Acanthocelides obtectus. The experiment is described as follows: Lethal activity against Acanthocelides obtectus. As to conditions: Test D repeated.
For the next experiment, the system named is beetles. Description: Lethal activity against beetles (contact with film on glass). The conditions noted are these: contact with film on glass from acetone solutions. The source says: The tests were effected by contact with a film on glass deposited by pipette of acetone solutions of different concentrations on the bottom of a glass Petrie dish with sides previously coated with talc to avoid loss of insects.

Experiment [2] relates to houseflies. The experiment is described as follows: Lethal activity against houseflies (topical application). The conditions noted are these: female houseflies 4 to 5 days old, topical 1 μl acetone solution on dorsal thorax, dead counted 24 hours later. The protocol:
50 female houseflies 4 to 5 days old per treatment received a topical application of 1 μl of an acetone solution of the test compound on the dorsal thorax with an Arnold micromanipulator and the number of dead flies was determined 24 hours later. The DL50 or dose in nanograms per fly necessary to kill 50% of the insects were determined and the results are reported in Table II.

The test system of experiment [3] is larvae of Spodoptera littoralis. Description: Lethal effect against Spodoptera larvae (topical application). As to conditions: Spodoptera littoralis larvae 4th stage, topical 1 μl acetone solution, dead counted 48 hours later. The protocol: 1 μl of acetone solution of the test compound was applied with an Arnold micromanipulator to the dorsal thorax of 15 larvae of Spodoptera littoralis in the 4th stage of development which are about 10 days old at 24° C. and 65% relative humidity. After treatment, the larvae were placed on an artificial nutritive media and the number of dead was determined 48 hours later.

The test system of experiment [4] is houseflies. The experiment is described as follows: Knockdown activity against houseflies. As to conditions: female houseflies 4 days old, sprayed in Kearns and March chamber, 0.25 g/liter, 5% acetone and 95% Isopar L. Here is the method: Female houseflies 4 days old were sprayed in a Kearns and March chamber at 2 ml per second with a solution of 5% of acetone and 95% of Isopar L with 50 insects being used for each dose at a concentration of 0.25 g/liter and readings were taken every 30 seconds for 10 minutes and after 15 minutes to determine the KT50 by the usual method.

For the molecule `CC1(C)[C@H](C(=O)O[C@H](C#N)c2ccc(F)c(Oc3ccccc3)c2)[C@H]1C(Br)C(Br)(Br)Br` (stereo partly drawn) [Example 4, (S) cyano-(4-fluoro-3-phenoxy-phenyl)-methyl (1R,trans) 2,2-dimethyl-3-[1(R,S)2,2,2-tetrabromoethyl]-cyclopropane-1-carboxylate], in experiment [1], the “DL50 in ng per insect” value came to 6.7 ng per insect. In addition, the “CL50 in mg/m^2” value in the experiment with beetles amounted to 0.074 mg/m^2. Besides, in the experiment with houseflies [2], the “DL50 namograms per insects” value turned out to be 1.04 namograms per insects. For the same molecule, in experiment [3], the “DL50 ng per insect” value is listed as 6.5 ng per insect. The molecule also showed a KT50 with houseflies [4] of 2.0 min.

Take `CC1(C)C(C(=O)O[C@H](C#N)c2ccc(F)c(Oc3ccccc3)c2)C1(C)C` [Example 1, (S) cyano-(4-fluoro-3-phenoxy-phenyl)-methyl 2,2,3,3-tetramethyl-cyclopropane-1-carboxylate]: the “DL50 in ng per insect” value in experiment [1] came to 8.12 ng per insect. Moreover, the “CL50 in mg/m^2” value with beetles was found to be 0.22 mg/m^2. For the same molecule, in the experiment on houseflies [2], the “DL50 namograms per insects” value turned out to be 5.3 namograms per insects. In experiment [3], the “DL50 ng per insect” value amounted to 8.4 ng per insect. The KT50 in the experiment on houseflies [4] was found to be 2.0 min.

For `CC1(C)[C@H](C(=O)O[C@H](C#N)c2ccc(F)c(Oc3ccccc3)c2)[C@H]1C(Br)C(Cl)(Cl)Br` (mixture of isomers) [Example 2, (S) cyano-(4-fluoro-3-phenoxy-phenyl)-methyl (1R,trans) 2,2-dimethyl-3-[1 (R,S), 2-dibromo-2,2-dichloroethyl]-cyclopropane-1-carboxylate], the “DL50 in ng per insect” value in experiment [1] is reported as 10.9 ng per insect. In addition, the “CL50 in mg/m^2” value in the experiment on beetles was found to be 0.084 mg/m^2. Also, the “DL50 namograms per insects” value with houseflies [2] was 1.14 namograms per insects. For the same molecule, in experiment [3], the “DL50 ng per insect” value is reported as 6.2 ng per insect. The molecule further yielded a KT50 in the experiment on houseflies [4] of 2.8 min.

On to `CC1(C)[C@H](C=C2CCSC2=O)[C@H]1C(=O)O[C@H](C#N)c1ccc(F)c(Oc2ccccc2)c1` [Example 10, (S) cyano-(4-fluoro-3-phenoxy-phenyl)-methyl (1R,trans) 2,2-dimethyl-3-[(dihydro-2-oxo-3-(2H)-thienylidene)-methyl]-cyclopropane-1-carboxylate], for which, in the experiment with houseflies [4], the KT50 is 3.5 min.

In the case of `CC1(C)[C@H](C(=O)O[C@H](C#N)c2ccc(F)c(Oc3ccccc3)c2)[C@@H]1C=C1CCSC1=O` [Example 11, (S) cyano-(4-fluoro-3-phenoxy-phenyl)-methyl (1R,cis) 2,2-dimethyl-3-[(dihydro-2-oxo-3-(2H)-thienylidene)-methyl]-cyclopropane-1-carboxylate], the “DL50 in ng per insect” value in experiment [1] was 50.6 ng per insect. For the same molecule, the “DL50 namograms per insects” value in the experiment with houseflies [2] is recorded as 21.3 namograms per insects. The “DL50 ng per insect” value in experiment [3] is 8.2 ng per insect. For the same molecule, the KT50 with houseflies [4] came out at 3.5 min.

As for `CC(C)[C@H](C(=O)O[C@H](C#N)c1ccc(F)c(Oc2ccccc2)c1)c1ccc(OC(F)F)cc1` [Example 12, (S) cyano (4-fluoro-3-phenoxy-phenyl)-methyl 2 (S)-[p-difluoromethoxy-phenyl]-3-methyl-butyrate], the “DL50 in ng per insect” value in experiment [1] was 22.2 ng per insect. The “CL50 in mg/m^2” value in the experiment with beetles is 0.23 mg/m^2. In the experiment with houseflies [2], the “DL50 namograms per insects” value worked out at 4.9 namograms per insects. For the same molecule, in experiment [3], the “DL50 ng per insect” value was 44.3 ng per insect. For the same molecule, the KT50 in the experiment with houseflies [4] was 3.6 min.

As to `CC1(C)[C@H](C(=O)O[C@H](C#N)c2ccc(F)c(Oc3ccccc3)c2)[C@@H]1C(Br)C(Cl)(Cl)Br` (stereo partly drawn) [Example 3, (S) cyano-(4-fluoro-3-phenoxy-phenyl)-methyl (1R,cis) 2,2-dimethyl-3-[1(R,S) 2-dibromo-2,2-dichlor-ethyl]-cyclopropane-1-carboxylate], the “DL50 in ng per insect” value in experiment [1] is 7.7 ng per insect. The “CL50 in mg/m^2” value with beetles came out at 0.021 mg/m^2. For the same molecule, the “DL50 namograms per insects” value with houseflies [2] is on record as 1.02 namograms per insects. Moreover, in experiment [3], the “DL50 ng per insect” value was 1.4 ng per insect. Further, the KT50 with houseflies [4] amounted to 2.9 min.

In the case of `CC1(C)[C@H](C=C2CC2)[C@H]1C(=O)O[C@H](C#N)c1ccc(F)c(Oc2ccccc2)c1` [Example 15, (S) cyano-(3-phenoxy-4-fluoro-phenyl)-methyl (1R,trans) 2,2-dimethyl-3-cyclopropylidene-methyl-cyclopropane-1-carboxylate], in experiment [1], the “DL50 in ng per insect” value is on record as 31.2 ng per insect. In addition, the “CL50 in mg/m^2” value with beetles amounted to 0.137 mg/m^2. For the same molecule, the “DL50 namograms per insects” value in the experiment with houseflies [2] was 2.04 namograms per insects. Moreover, the “DL50 ng per insect” value in experiment [3] is recorded as 4.6 ng per insect. This molecule had a KT50 in the experiment on houseflies [4] of 2.85 min.

On to `CC1(C)[C@H](C=C(F)F)[C@H]1C(=O)O[C@H](C#N)c1ccc(F)c(Oc2ccccc2)c1` [Example 6], for which the “DL50 in ng per insect” value in experiment [1] was found to be 7.1 ng per insect. Also, the “CL50 in mg/m^2” value in the experiment with beetles is recorded as 0.126 mg/m^2. The “DL50 namograms per insects” value in the experiment on houseflies [2] was determined as 8.9 namograms per insects. The “DL50 ng per insect” value in experiment [3] turned out to be 3.4 ng per insect. In addition, in the experiment on houseflies [4], the KT50 was 1.6 min.

With `CC1(C)[C@H](C=C2CCC2)[C@H]1C(=O)O[C@H](C#N)c1ccc(F)c(Oc2ccccc2)c1` [Example 13, (S) cyano-(4-fluoro-3-phenoxy-phenyl)-methyl (1R,trans) 2,2-dimethyl-3-cyclobutylidene-methyl-cyclopropane-1-carboxylate], the “DL50 in ng per insect” value in experiment [1] is listed as 17.9 ng per insect. Moreover, the “CL50 in mg/m^2” value in the experiment on beetles turned out to be 0.029 mg/m^2. The “DL50 namograms per insects” value in the experiment on houseflies [2] amounted to 0.97 namograms per insects. In addition, in experiment [3], the “DL50 ng per insect” value was 5.8 ng per insect. In the experiment on houseflies [4], the KT50 stood at 2.74 min.

As to `CC1(C)[C@H](C(=O)O[C@H](C#N)c2ccc(F)c(Oc3ccccc3)c2)[C@@H]1C=C1CCC1` [Example 16, (S) cyano-(4-fluoro-3-phenoxy-phenyl)-methyl (1R,cis) 2,2-dimethyl-3-cyclobutylidenemethyl-cyclopropane-1-carboxylate], in experiment [1], the “DL50 in ng per insect” value was found to be 12.3 ng per insect. Further, the “CL50 in mg/m^2” value in the experiment with beetles was determined as 0.018 mg/m^2. Also, the “DL50 namograms per insects” value in the experiment with houseflies [2] worked out at 0.639 namograms per insects. In addition, the “DL50 ng per insect” value in experiment [3] is on record as 4.5 ng per insect. In the experiment with houseflies [4], the KT50 came out at 2.89 min.

`CC1(C)[C@H](C(=O)O[C@H](C#N)c2ccc(F)c(Oc3ccccc3)c2)[C@@H]1C=C(F)F` [Example 7, (S) cyano-(4-fluoro-3-phenoxy-phenyl)-methyl (1R,cis) 2,2-dimethyl-3-[2,2-difluoroethenyl]-cyclopropane-1-carboxylate]: in experiment [1], the “DL50 in ng per insect” value stood at 7.4 ng per insect. For the same molecule, the “CL50 in mg/m^2” value in the experiment on beetles is on record as 0.029 mg/m^2. The “DL50 namograms per insects” value in the experiment with houseflies [2] is 1.9 namograms per insects. Also, the “DL50 ng per insect” value in experiment [3] is 2.2 ng per insect. In addition, in the experiment on houseflies [4], the KT50 came to 1.7 min.

For the molecule `CC1(C)[C@H](C=C2CCCC2)[C@H]1C(=O)O[C@H](C#N)c1ccc(F)c(Oc2ccccc2)c1` [Example 8, (S) cyano-(4-fluoro-3-phenoxy-phenyl)-methyl (1R,trans) 2,2-dimethyl-3-cyclopentylidenemethyl-cyclopropane-1-carboxylate], the “DL50 in ng per insect” value in experiment [1] is given as 20.1 ng per insect. The “CL50 in mg/m^2” value in the experiment with beetles was determined as 0.054 mg/m^2. For the same molecule, the “DL50 namograms per insects” value in the experiment on houseflies [2] was found to be 0.98 namograms per insects. Also, in experiment [3], the “DL50 ng per insect” value was determined as 14.9 ng per insect. The molecule further gave a KT50 in the experiment on houseflies [4] of 6.1 min.

As for `CC1(C)[C@H](C(=O)O[C@H](C#N)c2ccc(F)c(Oc3ccccc3)c2)[C@@H]1C=C1CC1` [Example 14, (S) cyano-(4-fluoro-3-phenoxy-phenyl)-methyl (1R,cis) 2,2-dimethyl-3-cyclopropylidene-methyl-cyclopropane-1-carboxylate], in experiment [1], the “DL50 in ng per insect” value is 22.7 ng per insect. The “CL50 in mg/m^2” value in the experiment with beetles was found to be 0.049 mg/m^2. The “DL50 namograms per insects” value with houseflies [2] amounted to 1.44 namograms per insects. The “DL50 ng per insect” value in experiment [3] came to 4.25 ng per insect. Also, the KT50 with houseflies [4] came to 3.13 min.

For `CC1(C)[C@H](C(=O)O[C@H](C#N)c2ccc(F)c(Oc3ccccc3)c2)[C@@H]1C=C1CCCC1` [Example 9, (S) cyano-(4-fluoro-3-phenoxy-phenyl)-methyl (1R,cis) 2,2-dimethyl-3-cyclopentylidenemethyl-cyclopropane-1-carboxylate], the “DL50 in ng per insect” value in experiment [1] worked out at 8.6 ng per insect. The “CL50 in mg/m^2” value in the experiment on beetles is 0.083 mg/m^2. The “DL50 namograms per insects” value in the experiment with houseflies [2] is 0.87 namograms per insects. In addition, the “DL50 ng per insect” value in experiment [3] is 5.1 ng per insect. This molecule also registered a KT50 in the experiment on houseflies [4] of 4.4 min.

With `CC1(C)[C@H](C(=O)O[C@H](C#N)c2ccc(F)c(Oc3ccccc3)c2)[C@@H]1C(Br)C(Br)(Br)Br` (stereo partly drawn) [Example 5, (S) cyano-(4-fluoro-3-phenoxy-phenyl)-methyl (1R,cis) 2,2-dimethyl-3-[1,(R,S) 2,2,2-tetrabromoethyl]-cyclopropane-1-carboxylate], in experiment [1], the “DL50 in ng per insect” value came out at 16.1 ng per insect. Also, in the experiment on beetles, the “CL50 in mg/m^2” value was found to be 0.037 mg/m^2. For the same molecule, the “DL50 namograms per insects” value in the experiment on houseflies [2] is given as 0.58 namograms per insects. Moreover, the “DL50 ng per insect” value in experiment [3] stood at 1.6 ng per insect. The molecule further had a KT50 in the experiment on houseflies [4] of 4.8 min.
